According to US6479466B1, “Compositions for treating viral infections, and methods therefor” (University of Maryland, priority 1999, dated 2002):
Read-outs that look alike come from different tables or passages of the source.

What was measured:
[1] = tested on: HTLV-IIIB; assay: p24 antigen in infected resting T-lymphocytes exposed to drugs for 6 days before PHA activation; format: cell-based, HIV-1
Experimental: The effect of RV and nucleoside analogues in infected resting T-lymphocytes was evaluated in the present example. Purified resting cells were used. Absence of activated lymphocytes in the preparation was determined by incubation of the cells in the presence of a monoclonal antibody directed against the low affinity IL-2 receptor CD25 (Pharmingen, San Diego, Calif.), and subsequent analysis by flow cytometry. […] Cells were infected with HTLV-IIIB at a multiplicity of infection of 10^4 TCID50/10^6 cells for 3 hours. A high multiplicity of infection (m.o.i.) was used because of a reported short half life of HIV-1 unintegrated DNA in infected resting lymphocytes. Infected cells were washed 3 times with PBS to remove virus excess and resuspended in 10% FBS RPMI medium supplemented with drugs. To ensure that any antiviral activity exerted by the drugs occurred during the resting state, drugs were removed six days after infection by washing with PBS 3 times, and cells were activated by culturing in the presence of PHA for 2 days. Cells were then cultured in IL-2 medium without drugs, and supernatants were monitored for the presence of p24 antigen. Cultures were maintained for 20 days.
Purified resting T-lymphocytes from a seronegative donor were infected with HTLV-IIIB at the high multiplicity of infection and cultured in the presence of 5 or 10 μM RV plus ddI (0, 0.25, 0.5 μM), ddC (0, 0.1 μM) or AZT (0, 4 μM) for 6 days. Concentrations used for ddC and AZT correspond to the highest, nontoxic concentration attainable in plasma of treated individuals. […] On day 6 after infection, drugs were washed away and cells were activated with PHA. The extent of viral replication was evaluated on day 6 (prior to PHA activation) and days 14 and 20 after infection. On day 6 very low amounts of p24 antigen could be detected under every condition tested, likely representing residual virus from the infecting inoculum. […] No toxicity was found by the MTT assay in uninfected culture controls treated with 5 μM RV and 0.5 μM ddI for 20 days under the same conditions.

[2] = tested on: HTLV-IIIB; assay: p24 antigen production in PHA-activated PBMCs infected with HTLV-IIIB; format: cell-based, HIV-1; details: for IC90 / inhibition at 10 µM: Human immunodeficiency virus 1, IIIB, PBMC; for IC90: read-out: IC90 (concentration of nucleoside analog that reduced the p24 antigen value of the untreated control by 90%)
From the text: The antiviral activities of RV alone and in combination with nucleoside analogs were investigated in PHA-stimulated PBMCs from seronegative donors. RV, ddC, ddI, and AZT were purchased from Sigma (St. Louis, Mo.). The HIV-1 T-cell line adapted isolate HTLV-IIIB was obtained from Dr. Gallo, at the National Institutes of Health AIDS Research and Reference Reagent Program (Catalog #398, Rockville, Md.). Primary strains of HIV-1 were isolated by coculturing 10^7 patient PBMC with an equal number of PHA-stimulated PBMC from a normal donor. Titration of stocks and MT-2 phenotype determination were carried out as described (ACTG Virology Manual, NIH Pub No. 94 3828, 1994). The SI phenotype was determined by assessing viral growth and syncytia formation in the MT-2 cell line obtained from Dr. Richman at the National Institutes of Health AIDS Research and Reference Reagent Program (Catalog #237, Rockville, Md.).
Primary PBMCs were separated from whole blood of HIV seronegative donors by density centrifugation over Ficoll-Hypaque (Sigma). The culture medium consisted of RPMI supplemented with 10% fetal bovine serum (FBS), 2 mM glutamine and penicillin/streptomycin (Gibco, Grand Island, N.Y.).
For infection studies involving PBMCs, cells were stimulated with 2.5 or 10 μg/ml phytohemagglutinin (PHA; Boehringer Mannheim, Indianapolis, Ind.) for 3 days. Stimulated PBMCs were infected by incubation with virus at a multiplicity of infection of 1000 TCID50/10^6 PBMC for 2 hours. PBMCs were then washed three times with PBS and cultured in 5% CO2 at 37° C., in RPMI/10% FBS supplemented with 10 units/ml IL-2 (Boehringer Mannheim) and drugs as appropriate. PBMCs were seeded in 96-well flat-bottom plates at a density of 2×10^5 PBMCs/200 μl. Following 3 days of culture half of the medium was replaced with fresh medium containing IL-2 and drugs. After 7 days of culture, HIV-1 p24 antigen production in the culture supernatant was assayed by ELISA (Coulter, Hialeah, Fla.). The concentration of nucleoside analog, alone and in combination with resveratrol, that reduced the p24 antigen value of the untreated control by 90% (IC90) was calculated by using nonparametric regression analysis. The analysis used the median-effect equation, Fa=1/[1+(Dm/D)]^m, where D is the dose, Fa is the fraction affected, and Dm is the dose required to produce the median effect.
Cells were infected with the T-cell tropic isolate HTLV-IIIB for 2 hours, and then cultured in varying concentrations of RV with or without nucleoside analogs. Virus replication was measured by p24 antigen production by ELISA using a standard commercial kit in the culture supernatants on days 7 and 10 after infection.
Activated PBMCs infected with HTLV-IIIB were cultured in the presence of ddI plus HU (100 μM) or RV (5 and 10 μM). […] Virus production in the presence of the different drug concentrations was evaluated on day 7 after infection.

Row | Compound | virus production ([1]; ddI 1 μM, previous studies under these conditions) | viral replication after PHA activation ([1]; ddI by itself (0.25, 0.5 μM)) | IC90 ([2]; 168 h, in combination with 5 μM RV, day 7) [µM] | IC90 ([2]; 168 h, nucleoside analog alone, day 7) [µM] | increase in antiviral activity ([2]; addition of 10 μM RV to 2 μM ddI) [fold] | reduction of IC90 value ([2]; in combination with 5 μM RV) [fold] | reduction of IC90 value ([2]; in the presence of 10 μM RV) [fold] | virus production on days 14 and 20 following PHA activation ([1]; RV alone (5 or 10 μM)) | inhibition at 10 µM ([2]; 168 h, 10 μM RV combined with 0.5 μM ddI, day 7, read-out: inhibition of virus replication) [%] | inhibition at 10 µM ([2]; 168 h, 10 μM RV in combination with 0.25 μM ddI, day 7, read-out: inhibition of HIV-1 replication) [%] | inhibition at 10 µM ([2]; RV 10 μM alone, read-out: inhibition of viral replication) [%] | reduction of virus production ([2]; RV 5 μM alone)
1 | OC[C@@H]1CC[C@H](n2cnc3c(O)ncnc32)O1 [ddI, 2′,3′-dideoxyinosine] | completely suppress virus production | did not suppress viral replication | 1.3 | 7.5 | 200 | 5.7 | 17.8 |  |  |  |  | 
2 | Oc1ccc(/C=C/c2cc(O)cc(O)c2)cc1 [RV, trans-3, 4′, 5-trihydroxystilbene] |  |  |  |  |  |  |  | considerable virus production | > 99 | 94 | ~30 | approximately 10%
